Source: the supplement of paper PMC11616607

Columns and labels:
Assay in all cases: drug sensitivity score (DSS) from 5-point dose-response viability curve (DSS (area-under-curve based score)); higher = more sensitive (stronger growth inhibition or killing); extreme values may be limits of the assay
Conditions in all cases: exposure time: 72 h; concentration range: 5 concentrations over 10,000-fold range
[1] = tested on: Ovsaho
In short: (§1)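 Each cell line and drug received a drug sensitivity score from Breeze software, where higher means more sensitive. Zero stands for no response. Scores came from CellTiter-Glo viability readings of ovarian cancer and normal ovarian cells, 1,500 per well in 384-well plates, after 3 days at 37°C, 5% CO2 with drugs at five concentrations over a 10,000-fold range.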

[2] = tested on: JHOS2
In short: as §1

[3] = tested on: CAOV3
In short: as §1

[4] = tested on: OVCAR5
In short: as §1

[5] = tested on: COV318
In short: as §1

[6] = tested on: HOSE2C
In short: as §1

[7] = tested on: Kuramochi
In short: as §1

[8] = tested on: OV90
In short: as §1

[9] = tested on: OVCAR8
In short: as §1

[10] = tested on: COV362
In short: as §1

[11] = tested on: HOSE1C
In short: as §1

[12] = tested on: OVCAR4
In short: as §1

Row | SMILES | drug sensitivity score [1] | drug sensitivity score [2] | drug sensitivity score [3] | drug sensitivity score [4] | drug sensitivity score [5] | drug sensitivity score [6] | drug sensitivity score [7] | drug sensitivity score [8] | drug sensitivity score [9] | drug sensitivity score [10] | drug sensitivity score [11] | drug sensitivity score [12]
1 | C=CC(=O)Nc1cccc(Nc2nc(Nc3ccc(OCCOC)cc3)ncc2F)c1 [Spebrutinib] | 2.2 | 1.9 | 0.3 | 1.2 | 2 | 0.4 | 1.6 | 1.3 | 0 | 0.9 | 0 | 2
2 | CCS(=O)(=O)c1cccc(-c2cc(C(=O)NC3CCN(C)CC3)c(C)c3[nH]c4ncc(C)cc4c23)c1 [TAK-901] | 7.5 | 1.2 | 16.9 | 4.7 | 1.4 | 7.4 | 6.8 | 4.6 | 2.8 | 1.1 | 3.5 | 5.8
3 | COc1cc(OC)c(/C=C/S(=O)(=O)Cc2ccc(OC)c(NCC(=O)O)c2)c(OC)c1 [Rigosertib] | 18.9 | 11.5 | 23.4 | 17 | 11.7 | 20.8 | 14.9 | 20.2 | 25.4 | 9.8 | 28.4 | 10.9
4 | COc1cccc2c1C(=O)c1c(O)c3c(c(O)c1C2=O)C[C@@](O)(/C(CO)=N/NC(=O)CCCCCN1C(=O)C=CC1=O)C[C@@H]3O[C@H]1C[C@H](N)[C@H](O)[C@H](C)O1 [Aldoxorubicin] | 8.3 | 7.3 | 9.2 | 6.5 | 3.8 | 7.4 | 5.8 | 8.3 | 10 | 2.2 | 6.8 | 3.2
5 | CO[C@@H](C(=O)N1Cc2[nH]nc(NC(=O)c3ccc(N4CCN(C)CC4)cc3)c2C1)c1ccccc1 [Danusertib] | 14.7 | 3.1 | 23.5 | 7.2 | 4.3 | 12.5 | 11.1 | 4.9 | 8.7 | 5.6 | 7.4 | 8.7
6 | CN(CC(=O)N(Cc1ccc(C2CCCCC2)cc1)c1ccc(C(=O)O)cc1)S(=O)(=O)c1c(F)c(F)c(F)c(F)c1F [SH-4-54] | 5.7 | 5.2 | 8.1 | 5.2 | 5.1 | 7.5 | 6.6 | 7.4 | 5.8 | 4.5 | 7.5 | 6.2
7 | CC1(C)CCC(c2ccc(Cl)cc2)=C(CN2CCN(c3ccc(C(=O)NS(=O)(=O)c4ccc(N[C@H](CCN5CCOCC5)CSc5ccccc5)c(S(=O)(=O)C(F)(F)F)c4)cc3)CC2)C1 [Navitoclax] | 3 | 0 | 2.6 | 0.9 | 0 | 5.9 | 0 | 10.2 | 0 | 0 | 24.2 | 2
8 | O=C(O)c1ccc(CN2CCC(CN[C@@H]3C[C@H]3c3ccccc3)CC2)cc1 | 0 | 0 | 0 | 0 | 0 | 0 | 0 | 0 | 0 | 0 | 0 | 0.3
9 | CC1(C)C(C(=O)Nc2ccc(S(=O)(=O)c3ccc(NC(=O)C4C(C)(C)C4(C)C)cc3)cc2)C1(C)C [BRD7116] | 3.8 | 0.7 | 0.3 | 2.1 | 0.1 | 0 | 2.1 | 0 | 0 | 0 | 0 | 2.1
10 | N#CCNC(=O)c1ccc(-c2ccnc(Nc3ccc(N4CCOCC4)cc3)n2)cc1 [Momelotinib] | 2.4 | 6.9 | 0.9 | 3.3 | 2.7 | 5.8 | 1 | 2.6 | 4.8 | 1 | 6.8 | 0
11 | COc1cc(C)[nH]c(=O)c1CNC(=O)c1c(C)n([C@H](C)C2CCOCC2)c2ccccc12 [CPI-360] | 0 | 0.2 | 0 | 0.8 | 0 | 0 | 0 | 0.6 | 0 | 0 | 0 | 0
12 | Cc1[nH]c2ccccc2c1CCNCc1ccc(/C=C/C(=O)NO)cc1 [Panobinostat] | 10.8 | 13.1 | 14.5 | 23.3 | 10.6 | 21.1 | 15.3 | 18.2 | 21.4 | 5.8 | 24.1 | 13.5
13 | CC(C)[C@H](C(=O)Nc1ccc(C(=O)NO)cc1)c1ccccc1 [AR-42] | 9 | 7.8 | 9.9 | 16.5 | 7.5 | 16.9 | 9.5 | 12.8 | 16.8 | 2.9 | 21.1 | 7.2
14 | Cc1nc(-c2cn3c(n2)-c2ccc(-c4cnn(C(C)(C)C(N)=O)c4)cc2OCC3)n(C(C)C)n1 [Taselisib] | 3.1 | 3.3 | 7.5 | 7.9 | 2.5 | 7.8 | 4.1 | 0.3 | 2.1 | 1.9 | 4.5 | 2.1
15 | Cc1ccc(C(=O)Nc2ccc(CN3CCN(C)CC3)c(C(F)(F)F)c2)cc1C#Cc1cnc2cccnn12 [Ponatinib] | 7.6 | 3.6 | 2.4 | 5.5 | 5.7 | 8.5 | 9.3 | 6.9 | 3.3 | 4.9 | 3.3 | 5.7
16 | Cc1noc2c1-c1ccccc1C(c1ccc(Cl)cc1)=N[C@H]2CC(N)=O [CPI-0610] | 12.6 | 5 | 8.5 | 9.3 | 4.1 | 9.9 | 13 | 7.6 | 6.4 | 5.9 | 9.3 | 5
17 | CCN(CC)CCOc1ccc(C(=C(Cl)c2ccccc2)c2ccccc2)cc1 [Clomifene] | 3.2 | 3.8 | 3.2 | 7 | 2.2 | 4.1 | 3.9 | 6.9 | 3.1 | 4.4 | 5.8 | 1.9
18 | Nc1ncn([C@H]2C[C@H](O)[C@@H](CO)O2)c(=O)n1 [Decitabine] | 0 | 0 | 2.3 | 2.4 | 0 | 0.5 | 0 | 0 | 2.8 | 0 | 0 | 2.8
19 | CCCCC(=O)OCC(=O)[C@]1(O)Cc2c(O)c3c(c(O)c2[C@@H](O[C@H]2C[C@H](NC(=O)C(F)(F)F)[C@H](O)[C@H](C)O2)C1)C(=O)c1c(OC)cccc1C3=O [Valrubicin] | 10.9 | 6.6 | 10.8 | 6.2 | 4.4 | 8.3 | 6.6 | 7.7 | 9.5 | 2.4 | 10.1 | 3.8
20 | C[C@@H](Nc1cc(F)cc(F)c1)c1cc(C(=O)N(C)C)cc2c(=O)cc(N3CCOCC3)oc12 [AZD-8186] | 6.3 | 0.8 | 2.1 | 1.9 | 0.7 | 0.3 | 7.1 | 0.1 | 0.6 | 0 | 0.1 | 3.1
21 | Cc1cc(C(C)Nc2ccccc2)c2nc(N3CCOCC3)cc(=O)n2c1 (stereo not given) [TGX-221] | 7.8 | 0 | 0.8 | 2.1 | 0 | 0 | 7.9 | 0.2 | 1.2 | 0.3 | 0 | 1.7
22 | N#CC[C@H](C1CCCC1)n1cc(-c2ncnc3[nH]ccc23)cn1 [Ruxolitinib] | 0 | 1 | 0 | 0 | 0 | 0 | 0 | 0.1 | 0.1 | 0 | 0 | 0
23 | C[C@]1(O)C[C@@H](c2nc(-c3ccc4ccc(-c5ccccc5)nc4c3)c3c(N)nccn32)C1 [Linsitinib] | 0 | 0 | 1.4 | 2.7 | 0 | 2 | 0 | 0.9 | 0.3 | 0 | 0.7 | 0
24 | Cc1cnc(NC(=O)Nc2cc(Br)c(C)cc2OC[C@@H]2CNCCO2)cn1 [Rabusertib] | 0 | 0 | 0.1 | 0.1 | 0.2 | 2 | 0.1 | 1.6 | 0 | 0.2 | 1.8 | 1
25 | CC(C)N(C[C@H]1O[C@@H](n2cnc3c(N)ncnc32)[C@H](O)[C@@H]1O)[C@H]1C[C@@H](CCc2nc3cc(C(C)(C)C)ccc3[nH]2)C1 [Pinometostat] | 0 | 0 | 0 | 0 | 0 | 0 | 0 | 0 | 0 | 0 | 0 | 0
26 | Cc1nc(Nc2n[nH]c3c2CN(C(=O)N[C@H](CN(C)C)c2ccccc2)C3(C)C)c2sccc2n1 | 9 | 10.6 | 17.5 | 14.9 | 7.2 | 7.5 | 12.2 | 17 | 16.5 | 7.3 | 20.6 | 10.2
27 | CC1(C)CC[C@]2(NC(=O)C(C)(F)F)CC[C@]3(C)[C@H](C(=O)C=C4[C@@]5(C)C=C(C#N)C(=O)C(C)(C)[C@@H]5CC[C@]43C)[C@@H]2C1 [Omaveloxolone] | 19.6 | 13.3 | 17.4 | 13.7 | 10.5 | 16.3 | 14.3 | 18.8 | 18.9 | 9.2 | 16.5 | 18.6
28 | CN(C)CCCOc1ccc(-c2ccc3ncc4c(c3c2)n(C2CCOCC2)c(=O)n4C)cn1 [AZD0156] | 3.2 | 0 | 1.2 | 1.4 | 0 | 0 | 0.2 | 1.1 | 0 | 0 | 1 | 0
29 | O=C1Cc2cc(C(=O)NC3C[C@H]4CC[C@@H](C3)N4S(=O)(=O)CC3CCN(CCCC(F)(F)F)CC3)c(Cl)cc2N1 (stereo not given in full) | 0 | 0 | 0 | 0 | 0 | 0 | 0 | 0.6 | 0 | 0 | 0 | 0
30 | O=C(c1cccc(Cl)c1F)N1CCN(Cc2cccc(Nc3nccs3)n2)CC1 [MK-8745] | 0.2 | 0 | 4.9 | 7.8 | 0 | 3.5 | 0.4 | 0.5 | 8 | 0 | 2.1 | 1.1
